# Test results taken from the Kinase Knowledgebase extract (Sharma et al. 2016).
# pIC50: −log10 of the molar value.
# Biological target: EGFR (UniProt P00533)
# Assay: Inhibition of EGFR Kinase Activity
# EGFR, sequence (P00533 whole entry, looked up): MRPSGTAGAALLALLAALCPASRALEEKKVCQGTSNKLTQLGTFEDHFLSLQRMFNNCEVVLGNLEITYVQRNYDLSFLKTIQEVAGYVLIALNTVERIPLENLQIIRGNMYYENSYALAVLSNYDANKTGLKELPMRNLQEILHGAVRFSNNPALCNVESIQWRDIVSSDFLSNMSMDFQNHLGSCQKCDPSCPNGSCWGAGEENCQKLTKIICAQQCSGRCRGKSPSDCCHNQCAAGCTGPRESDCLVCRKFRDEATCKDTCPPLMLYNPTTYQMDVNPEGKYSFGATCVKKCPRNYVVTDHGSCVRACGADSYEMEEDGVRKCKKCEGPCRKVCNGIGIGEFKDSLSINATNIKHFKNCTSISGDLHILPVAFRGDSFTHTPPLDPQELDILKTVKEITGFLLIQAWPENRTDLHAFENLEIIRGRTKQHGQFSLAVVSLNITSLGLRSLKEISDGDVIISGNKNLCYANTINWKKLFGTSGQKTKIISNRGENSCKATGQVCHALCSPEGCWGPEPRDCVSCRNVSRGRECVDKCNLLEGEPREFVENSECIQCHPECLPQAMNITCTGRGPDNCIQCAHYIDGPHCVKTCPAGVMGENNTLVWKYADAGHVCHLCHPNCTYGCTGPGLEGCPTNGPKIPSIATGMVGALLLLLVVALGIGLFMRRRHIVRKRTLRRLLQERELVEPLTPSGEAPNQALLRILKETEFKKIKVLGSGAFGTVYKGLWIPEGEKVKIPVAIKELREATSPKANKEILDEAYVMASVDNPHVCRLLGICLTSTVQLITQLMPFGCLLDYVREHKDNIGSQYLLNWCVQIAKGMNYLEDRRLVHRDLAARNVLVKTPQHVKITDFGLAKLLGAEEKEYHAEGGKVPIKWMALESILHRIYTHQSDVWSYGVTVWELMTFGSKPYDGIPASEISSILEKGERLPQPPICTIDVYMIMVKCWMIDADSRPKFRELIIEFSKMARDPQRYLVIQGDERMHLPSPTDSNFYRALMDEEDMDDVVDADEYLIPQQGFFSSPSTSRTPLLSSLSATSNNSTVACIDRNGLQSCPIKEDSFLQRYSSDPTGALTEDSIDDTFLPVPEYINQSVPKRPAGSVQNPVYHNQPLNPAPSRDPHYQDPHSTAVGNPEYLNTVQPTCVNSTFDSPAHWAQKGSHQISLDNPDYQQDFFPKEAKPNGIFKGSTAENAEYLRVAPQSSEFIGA
row,SMILES,pIC50
1,C=CC(=O)Nc1ccc(Nc2ncnc(Nn3c(=O)[nH]c4ccccc43)n2)cc1,> 4.30
2,C=CC(=O)Nc1ccc(Nc2ncnc(N(CC)c3cccc(S(=O)(=O)c4ccc([N+](=O)[O-])cc4)c3)n2)cc1,> 4.30
3,C=CC(=O)Nc1cccc(Nc2ncnc(N(C)c3ccc(OCC)c(OCC)c3)n2)c1,> 4.30
4,CC#CC(=O)Nc1cc(Nc2ncnc(Nc3ccc4c(cnn4Cc4ccccc4)c3)n2)ccc1OCCCC1CCN(C)CC1,> 4.30
5,C=CCN(c1ncnc(Nc2ccc(NC(=O)C=C)cc2)n1)c1cccc2ccccc12,> 4.30
6,CC#CC(=O)Nc1cc(Nc2ncnc(N(C)c3ccc4c(cnn4Cc4ccccc4)c3)n2)ccc1OC,> 4.30
7,C=CCN(c1ccc2c(cnn2Cc2ccccc2)c1)c1ncnc(Nc2ccc(NC(=O)C=C)cc2)n1,> 4.30
8,CC#CC(=O)Nc1cccc(Nc2ncnc(N(C)c3ccc4c(ccn4Cc4ccccc4)c3)n2)c1,> 4.30
9,C=CC(=O)Nc1ccc(Nc2ncnc(Nn3c(=O)n(C(=O)C(C)(C)C)c4ccccc43)n2)cc1,> 4.30
10,C=CC(=O)Nc1cccc(Nc2ncnc(N(CC)c3ccc(OCCOC)c(OC)c3)n2)c1,> 4.30
11,C=CCN(c1cc(OC)c(OC)c(OCCN2CCOCC2)c1)c1ncnc(Nc2cccc(NC(=O)C#CC)c2)n1,> 4.30
12,C=CC(=O)Nc1cccc(Nc2ncnc(Nc3cc(OC)c(OC)c(OC)c3)n2)c1,> 4.30
13,C=CC(=O)Nc1ccc(Nc2ncnc(N(CC)c3cccc(CC(=O)OC)c3)n2)cc1,> 4.30
14,C=CCN(c1cc(OC)c(OC)c(OCCN2CCOCC2)c1)c1ncnc(Nc2cccc(NC(=O)C=C)c2)n1,> 4.30
15,C=CCN(c1ccc(OCCOC)c(OC)c1)c1ncnc(Nc2cccc(NC(=O)C=C)c2)n1,> 4.30
16,CC#CC(=O)Nc1cccc(Nc2ncnc(N(C)c3ccc(OC)c(OCCOC)c3)n2)c1,> 4.30
17,C=CC(=O)Nc1ccc(Nc2ncnc(Nc3ccc(OCc4ccccc4)cc3)n2)cc1,> 4.30
18,C=CCN(c1ncnc(Nc2ccc(NC(=O)C=C)cc2)n1)C1CC1c1ccc(Cl)cc1 (stereo not drawn),> 4.30
19,C=CCN(c1ccc(OCc2ccccc2)cc1)c1ncnc(Nc2ccc(NC(=O)C=C)cc2)n1,> 4.30
20,C=CC(=O)Nc1ccc(Nc2ncnc(N(CC)c3ccc4c(cnn4Cc4ccccc4)c3)n2)cc1,> 4.30
21,C=CC(=O)Nc1cccc(Nc2ncnc(Nc3cccc(CC(=O)OC)c3)n2)c1,> 4.30
22,CC#CC(=O)Nc1cccc(Nc2ncnc(N(C)C3CC3c3ccc(Cl)cc3)n2)c1 (stereo not drawn),> 4.30
23,C=CCN(c1ncnc(Nc2cccc(NC(=O)C#CC)c2)n1)C1CC1c1ccc(Cl)cc1 (stereo not drawn),> 4.30

row,SMILES,pIC50
1,C=CC(=O)Nc1ccc(Nc2ncnc(N(C)c3cc(Cl)cc4ccccc34)n2)cc1,> 4.30
2,C=CC(=O)N(CCCN1CCOCC1)c1cccc(Nc2ncnc(Nc3cc(Cl)cc4ccccc34)n2)c1,> 4.30
3,C=CCN(c1ccc(OCC)c(OCC)c1)c1ncnc(Nc2cccc(NC(=O)C=C)c2)n1,> 4.30
4,C=CC(=O)Nc1cccc(Nc2ncnc(N(CC)C3CC3c3ccc(Cl)cc3)n2)c1 (stereo not drawn),> 4.30
5,C=CC(=O)Nc1cccc(Nc2ncnc(NC3CC3c3ccc(Cl)cc3)n2)c1 (stereo not drawn),> 4.30
6,C=CC(=O)Nc1ccc(Nc2ncnc(NC3CC3c3ccccc3)n2)cc1 (stereo not drawn),> 4.30
7,CC#CC(=O)Nc1cccc(Nc2ncnc(N(CC)c3cccc(C)c3)n2)c1,> 4.30
8,CC#CC(=O)Nc1cccc(Nc2ncnc(N(C)c3ccc(OCc4ccccc4)c(Cl)c3)n2)c1,> 4.30
9,C=CC(=O)Nc1cc(Nc2ncnc(N(C)c3cccc(Cl)c3)n2)ccc1OCCCN1CCOCC1,> 4.30
10,C=CCN(c1ccc(OCCC)c(OCCC)c1)c1ncnc(Nc2cccc(NC(=O)C=C)c2)n1,> 4.30
11,C=CCN(c1cccc(C(N)=O)c1)c1ncnc(Nc2ccc(NC(=O)C=C)cc2)n1,> 4.30
12,C=CCN(c1cccc(Cl)c1)c1ncnc(Nc2ccc(NC(=O)C=C)cc2)n1,> 4.30
13,CC#CC(=O)Nc1cccc(Nc2ncnc(N(CC)c3cc(Cl)cc4ccccc34)n2)c1,> 4.30
14,C=CC(=O)Nc1cccc(Nc2ncnc(N(C)c3ccc(OCc4ccccc4)cc3)n2)c1,> 4.30
15,CC#CC(=O)Nc1cccc(Nc2ncnc(N(CC)c3ccc(OCCC)c(OCCC)c3)n2)c1,> 4.30
16,CC#CC(=O)Nc1cccc(Nc2ncnc(N(C)c3ccc4c(cnn4Cc4ccccc4)c3)n2)c1,> 4.30
17,C=CC(=O)Nc1ccc(Nc2ncnc(Nc3ccc(OCc4ccccc4)c(Cl)c3)n2)cc1,> 4.30
18,CC#CC(=O)Nc1cccc(Nc2ncnc(Nc3ccc(F)c(Cl)c3)n2)c1,> 4.30
19,C=CC(=O)N1CCc2cc(Nc3ncnc(Nc4ccc5c(cnn5Cc5ccccc5)c4)n3)ccc21,> 4.30
20,C=CC(=O)Nc1cccc(Nc2ncnc(Nc3ccc4nc(Cc5ccccc5)[nH]c4c3)n2)c1,> 4.30
21,CC#CC(=O)Nc1cccc(Nc2ncnc(N(CC)c3cccc(S(=O)(=O)c4ccc([N+](=O)[O-])cc4)c3)n2)c1,> 4.30
22,CC#CC(=O)Nc1cccc(Nc2ncnc(Nc3ccc(OCc4ccccc4)cc3)n2)c1,> 4.30
23,CC#CC(=O)Nc1cccc(Nc2ncnc(Nc3cc(OC)c(OC)c(OCCN4CCOCC4)c3)n2)c1,> 4.30

row,SMILES,pIC50
1,C=CCN(c1ccc(OC)c(OC)c1)c1ncnc(Nc2cccc(NC(=O)C#CC)c2)n1,> 4.30
2,C=CC(=O)Nc1cccc(Nc2ncnc(NC3CC3c3ccccc3)n2)c1 (stereo not drawn),> 4.30
3,C=CC(=O)Nc1ccc(Nc2ncnc(Nc3cc(Cl)cc4ccccc34)n2)cc1,> 4.30
4,CC#CC(=O)Nc1cccc(Nc2ncnc(Nn3c(=O)[nH]c4ccccc43)n2)c1,> 4.30
5,C=CC(=O)N(CCCN1CCOCC1)c1cccc(Nc2ncnc(Nc3ccc(C(=O)OC)cc3)n2)c1,> 4.30
6,CCN(c1ccc2NN(=Cc2c1)Cc3ccccn3)c4ncnc(Nc5cccc(NC(=O)C#CC)c5)n4,> 4.30
7,CC#CC(=O)Nc1cccc(Nc2ncnc(N(CC)c3ccc(F)c(Cl)c3)n2)c1,> 4.30
8,CC#CC(=O)Nc1cccc(Nc2ncnc(N(CC)c3ccc(OCCOC)c(OC)c3)n2)c1,> 4.30
9,C#CCC(=O)Nc1cccc(Nc2ncnc(NN3CCCc4cc(OC)ccc43)n2)c1,> 4.30
10,C=CC(=O)Nc1cccc(Nc2ncnc(Nn3c(=O)[nH]c4ccccc43)n2)c1,> 4.30
11,C=CC(=O)N(CCCN1CCOCC1)c1cccc(Nc2ncnc(Nc3cccc(Cl)c3)n2)c1,> 4.30
12,C#CCC(=O)Nc1cccc(Nc2ncnc(NN3CCCc4cc(C)ccc43)n2)c1,> 4.30
13,C=CC(=O)N(CCCN1CCOCC1)c2cccc(Nc3ncnc(Nc4ccc5NN(=Cc5c4)Cc6ccccn6)n3)c2,> 4.30
14,C=CCN(c1cccc(C(N)=O)c1)c1ncnc(Nc2cccc(NC(=O)C=C)c2)n1,> 4.30
15,C=CC(=O)Nc1cccc(Nc2ncnc(Nc3ccc(OCC)c(OCC)c3)n2)c1,> 4.30
16,C=CC(=O)Nc1ccc(Nc2ncnc(Nc3cccc(OCCOC)c3)n2)cc1,> 4.30
17,CC#CC(=O)Nc1cc(Nc2ncnc(Nc3ccc(OCc4ccccc4)c(Cl)c3)n2)ccc1OCCCC1CCN(C)CC1,> 4.30
18,C=CCN(c1cccc(C(N)=O)c1)c1ncnc(Nc2cccc(NC(=O)C#CC)c2)n1,> 4.30
19,C=CCN(c1ncnc(Nc2cccc(NC(=O)C=C)c2)n1)c1cc(Cl)ccc1C,> 4.30
20,C=CC(=O)N(OCCCN1CCOCC1)c1cccc(Nc2ncnc(NN3CCCc4ccc(Cl)cc43)n2)c1,> 4.30
21,C=CC(=O)Nc1ccc(Nc2ncnc(Nc3ccc4c(ccn4Cc4ccccc4)c3)n2)cc1,> 4.30
22,C=CCN(c1ncnc(Nc2cccc(NC(=O)C=C)c2)n1)n1c(=O)[nH]c2ccccc21,> 4.30
